Test systems include A498 renal; HCC-2998 colon; HL-60(TB) leukemia; KM12 colon; MALME-3M melanoma; SF-268 CNS; SK-MEL-5 melanoma; SN12C renal; UO-31 renal; SK-OV-3 ovarian.
Assay in all cases: DTP human tumour cell line panel, 48 h

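Test compounds were applied to cells in 96-well plates for 48 hours at 5 doses. GI50 = concentration required for 50% inhibition of growth. TGI: concentration producing complete growth inhibition.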

For `O=C1C(=C2CCCC2)CCC1CN1CCCCC1` (stereo not drawn), the TGI worked out at 35.7 µM in the assay with A498 renal; 29.8 µM with HCC-2998 colon; 21.9 µM with HL-60(TB) leukemia; 39.7 µM with KM12 colon; 30.5 µM with MALME-3M melanoma; 37.5 µM in the assay with SF-268 CNS. Besides, the concentration for total growth inhibition (TGI) with SK-MEL-5 melanoma was 34.1 µM; in the assay with SN12C renal, 30.6 µM; with UO-31 renal, over 100 µM.

On to `Cc1coc2c1C(=O)C(=O)c1ccccc1-2`, for which the TGI with A498 renal worked out at 3.25 µM; with HCC-2998 colon, 3.35 µM; with KM12 colon it was 3.49 µM; in the assay on MALME-3M melanoma, 2.96 µM; in the assay with SK-MEL-5 melanoma it was 1.92 µM; in the assay on SK-OV-3 ovarian it was 3.25 µM. Also, the TGI in the assay with SN12C renal was 2.12 µM; in the assay with UO-31 renal it was 10.4 µM.

In the case of `Cc1c(Cl)c(=O)oc2cc(OC/C=C3\CCC(=O)O3)ccc12`, the GI50 with A498 renal is 21.1 µM; in the assay with HCC-2998 colon, 18 µM; in the assay with KM12 colon, 26.1 µM; in the assay with MALME-3M melanoma it was 12.9 µM; in the assay with SF-268 CNS, 18.8 µM; in the assay with SK-MEL-5 melanoma it was 21 µM. Also, the GI50 is 58 µM with SK-OV-3 ovarian, 16.8 µM with SN12C renal and 12.1 µM in the assay on UO-31 renal. Further, the TGI in the assay with A498 renal was found to be 75.3 µM; in the assay on HCC-2998 colon, 41.2 µM; with KM12 colon, 75.3 µM; in the assay on MALME-3M melanoma, 32.2 µM; with SF-268 CNS it was 64.3 µM; in the assay with SK-MEL-5 melanoma, 52.2 µM. Besides, the TGI in the assay on SK-OV-3 ovarian is over 100 µM; in the assay with SN12C renal it was 41.4 µM; in the assay on UO-31 renal it was 25 µM.

As for `CCc1cccc(C(C)C)c1NC(=O)CCl`, the TGI with HL-60(TB) leukemia is 70.8 µM; in the assay on KM12 colon it was over 100 µM; with MALME-3M melanoma, over 100 µM; in the assay on SF-268 CNS, over 100 µM; in the assay with SK-OV-3 ovarian, over 100 µM; in the assay on SN12C renal, over 100 µM. In addition, the total growth inhibition concentration (TGI) in the assay on UO-31 renal was over 100 µM.

Regarding `Nc1ccc(-c2cc(C(=O)Nc3nccs3)[nH]c(=S)n2)cc1`, the TGI in the assay with A498 renal, with KM12 colon, with MALME-3M melanoma, in the assay on SF-268 CNS, with SK-MEL-5 melanoma and in the assay with SK-OV-3 ovarian was over 100 µM in each case. For the same molecule, the TGI in the assay with SN12C renal and with UO-31 renal was over 100 µM throughout.

With `C[P+](C)(C)C`, the TGI in the assay with HCC-2998 colon, in the assay on HL-60(TB) leukemia, in the assay on KM12 colon, with MALME-3M melanoma, in the assay on SF-268 CNS and in the assay on SK-MEL-5 melanoma was over 100 µM each time. The TGI with SK-OV-3 ovarian, with SN12C renal and with UO-31 renal was over 100 µM each time.

On to `CCC1C(C)C=NN1c1nc(N)nc(C(C#N)=Nc2ccc(N(C)C)cc2)n1` (stereo not drawn), for which the GI50 in the assay on HCC-2998 colon is 9.93 µM; in the assay with HL-60(TB) leukemia, 7.62 µM; with KM12 colon, 9.85 µM; in the assay on SF-268 CNS, 10.6 µM; with SK-MEL-5 melanoma, 9.09 µM; in the assay with SK-OV-3 ovarian it was 9.32 µM. In addition, the GI50 in the assay on SN12C renal is 9.76 µM; with UO-31 renal it was 15.1 µM. The TGI with HCC-2998 colon was 19.6 µM; in the assay with HL-60(TB) leukemia it was over 50 µM; in the assay with KM12 colon, 18.6 µM; with SF-268 CNS, 23.2 µM; in the assay on SK-MEL-5 melanoma it was 17.1 µM; in the assay with SK-OV-3 ovarian it was 17.8 µM. The TGI in the assay on SN12C renal was 18.9 µM; in the assay on UO-31 renal it was over 50 µM.

With `CC1=C(C(=O)NCc2ccccc2)C(c2ccc(Cl)c(Cl)c2)C(C(=O)NCc2ccccc2)=C(C)N1`, the TGI in the assay on A498 renal, with HCC-2998 colon, with HL-60(TB) leukemia, in the assay on KM12 colon, with MALME-3M melanoma and in the assay on SF-268 CNS was over 100 µM throughout. Moreover, the TGI in the assay on SK-MEL-5 melanoma, with SN12C renal and in the assay with UO-31 renal was over 100 µM throughout.

Consider `CCN(CC)c1c(-c2ccccc2)n[nH]c1C(=O)OC`, for which the GI50 with A498 renal is 0.519 µM; with HL-60(TB) leukemia it was 18.7 µM; in the assay with KM12 colon, 17.8 µM; in the assay on MALME-3M melanoma, 15.9 µM; in the assay with SF-268 CNS, 22.9 µM; with SK-MEL-5 melanoma, 14.5 µM. Further, the results for the GI50 in the assay on SK-OV-3 ovarian, with SN12C renal and in the assay with UO-31 renal were 17.4 µM, 24.4 µM and 46.5 µM, respectively. For the same molecule, the TGI stood at 31.7 µM with A498 renal; 48.8 µM in the assay on HL-60(TB) leukemia; 47 µM with KM12 colon; 41.5 µM with MALME-3M melanoma; 59.7 µM in the assay on SF-268 CNS; 27.6 µM in the assay on SK-MEL-5 melanoma. The TGI was 50.5 µM with SK-OV-3 ovarian, 40.3 µM with SN12C renal and over 100 µM in the assay on UO-31 renal.

Take `CC1=CC(C)(c2c[nH]c3ccccc23)CC(C)(C)c2c1[nH]c1ccccc21` (stereo not drawn): the TGI is 37.8 µM in the assay with A498 renal; 30.4 µM in the assay with HCC-2998 colon; over 100 µM in the assay on KM12 colon; 35 µM with MALME-3M melanoma; over 100 µM in the assay with SF-268 CNS; 61.8 µM with SK-OV-3 ovarian. Also, the results for the TGI in the assay with SN12C renal and in the assay with UO-31 renal were 28.5 µM and 27.3 µM, respectively.

For the molecule `CC1(C)CCCC2(C)C3C(O)CC2(C)C(O)C31` (stereo not drawn), the TGI in the assay with A498 renal, in the assay on HCC-2998 colon, in the assay on KM12 colon, in the assay with MALME-3M melanoma, in the assay with SF-268 CNS and with SK-MEL-5 melanoma was over 100 µM each time. The TGI in the assay with SK-OV-3 ovarian, with SN12C renal and with UO-31 renal was over 100 µM in each case.

As for `[N-]=[N+]=NCCCn1c2c(c3ccc([N+](=O)[O-])cc3c1=O)C(=O)c1cc3c(cc1-2)OCO3`, the GI50 was under 0.0281 µM in the assay on HL-60(TB) leukemia; under 0.0317 µM in the assay with SK-MEL-5 melanoma; 0.7 µM in the assay with SK-OV-3 ovarian; under 0.0106 µM in the assay with SN12C renal; under 0.0335 µM in the assay with UO-31 renal. In addition, the TGI with HL-60(TB) leukemia was over 100 µM; with KM12 colon, 5.01 µM; in the assay with SK-MEL-5 melanoma, 0.196 µM; in the assay on SK-OV-3 ovarian, over 100 µM; in the assay on SN12C renal, 0.95 µM; in the assay with UO-31 renal, 2.28 µM.

Consider `Cc1cc(C(=O)/C=C/c2ccc[nH]2)ccc1-n1ccc(C(F)(F)F)n1`, for which the GI50 was 20.1 µM in the assay on HCC-2998 colon; 0.457 µM in the assay on HL-60(TB) leukemia; 1.01 µM in the assay with KM12 colon; 7.25 µM with MALME-3M melanoma; 3.37 µM with SF-268 CNS; 12.1 µM in the assay on SK-MEL-5 melanoma. The values for the GI50 in the assay on SK-OV-3 ovarian, in the assay on SN12C renal and in the assay with UO-31 renal were 46.8 µM, 6.44 µM and 1.4 µM, respectively. Also, the TGI was over 100 µM with HCC-2998 colon; over 100 µM in the assay with HL-60(TB) leukemia; over 100 µM with KM12 colon; 54.7 µM with MALME-3M melanoma; over 100 µM in the assay on SF-268 CNS; 25.3 µM in the assay with SK-MEL-5 melanoma. Further, the figures for the TGI in the assay with SK-OV-3 ovarian, with SN12C renal and in the assay on UO-31 renal were over 100 µM, over 100 µM and 2.72 µM, respectively.

What is called TGI is the concentration giving total growth inhibition. A high value points to lower sensitivity of the cells. What is called GI50 is the concentration giving 50% growth inhibition.
